Data published in ChEMBL document CHEMBL1140483, “High dopamine transporter selectivity can be displayed by remarkably simple non-nitrogen containing inhibitors” (Bioorg Med Chem Lett, 2007).

What was measured:
Homo sapiens [1] = species: Homo sapiens; test: Selectivity for human DAT over human NET
[2] = target: Sodium-dependent noradrenaline transporter (Homo sapiens, UniProt P23975); test: Displacement of [125I]RTI55 from human NET transfected in COS1 cells; assay type: cell-based, COS-1
[3] = target: Sodium-dependent serotonin transporter (Homo sapiens, UniProt P31645); test: Displacement of [125I]RTI55 from human SERT transfected in COS1 cells; assay type: cell-based, COS-1
[4] = target: Sodium-dependent dopamine transporter (Homo sapiens, UniProt Q01959); test: Displacement of [125I]RTI55 from human DAT transfected in COS1 cells; assay type: cell-based, COS-1
Homo sapiens [5] = species: Homo sapiens; test: Selectivity for human DAT over human SERT

Sequence of Sodium-dependent serotonin transporter (P31645 whole entry): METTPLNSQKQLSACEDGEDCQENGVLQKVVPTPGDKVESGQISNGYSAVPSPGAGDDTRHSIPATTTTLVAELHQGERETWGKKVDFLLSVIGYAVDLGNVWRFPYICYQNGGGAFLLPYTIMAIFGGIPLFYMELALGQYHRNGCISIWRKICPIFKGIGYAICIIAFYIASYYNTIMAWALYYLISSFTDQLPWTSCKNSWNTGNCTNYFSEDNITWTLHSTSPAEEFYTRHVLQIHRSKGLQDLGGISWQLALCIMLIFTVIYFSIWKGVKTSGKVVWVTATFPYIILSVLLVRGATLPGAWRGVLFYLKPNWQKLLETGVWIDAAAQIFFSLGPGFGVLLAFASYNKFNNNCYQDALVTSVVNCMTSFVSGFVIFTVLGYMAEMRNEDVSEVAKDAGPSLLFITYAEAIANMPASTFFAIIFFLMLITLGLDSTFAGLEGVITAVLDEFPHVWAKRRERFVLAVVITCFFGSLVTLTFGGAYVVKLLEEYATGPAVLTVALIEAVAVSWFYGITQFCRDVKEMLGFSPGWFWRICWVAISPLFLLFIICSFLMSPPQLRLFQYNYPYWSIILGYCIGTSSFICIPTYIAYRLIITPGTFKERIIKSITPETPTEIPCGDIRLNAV
Sequence of Sodium-dependent dopamine transporter (Q01959 whole entry): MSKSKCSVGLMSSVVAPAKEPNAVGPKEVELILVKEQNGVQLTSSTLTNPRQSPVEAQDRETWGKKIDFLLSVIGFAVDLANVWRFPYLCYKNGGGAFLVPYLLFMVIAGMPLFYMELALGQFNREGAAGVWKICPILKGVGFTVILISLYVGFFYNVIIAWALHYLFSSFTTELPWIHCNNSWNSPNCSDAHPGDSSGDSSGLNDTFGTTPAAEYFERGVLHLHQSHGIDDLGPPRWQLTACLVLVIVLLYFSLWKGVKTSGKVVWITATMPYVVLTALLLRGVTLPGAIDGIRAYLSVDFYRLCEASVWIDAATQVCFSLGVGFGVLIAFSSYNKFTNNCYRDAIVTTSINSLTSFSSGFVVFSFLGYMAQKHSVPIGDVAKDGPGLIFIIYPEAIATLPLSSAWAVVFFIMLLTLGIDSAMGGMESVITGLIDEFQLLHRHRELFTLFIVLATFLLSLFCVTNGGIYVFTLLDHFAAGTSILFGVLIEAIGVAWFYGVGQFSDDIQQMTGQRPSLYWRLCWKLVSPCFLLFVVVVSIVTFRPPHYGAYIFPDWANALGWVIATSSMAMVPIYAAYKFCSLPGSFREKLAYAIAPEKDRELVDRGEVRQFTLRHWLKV
Sequence of Sodium-dependent noradrenaline transporter (P23975 whole entry): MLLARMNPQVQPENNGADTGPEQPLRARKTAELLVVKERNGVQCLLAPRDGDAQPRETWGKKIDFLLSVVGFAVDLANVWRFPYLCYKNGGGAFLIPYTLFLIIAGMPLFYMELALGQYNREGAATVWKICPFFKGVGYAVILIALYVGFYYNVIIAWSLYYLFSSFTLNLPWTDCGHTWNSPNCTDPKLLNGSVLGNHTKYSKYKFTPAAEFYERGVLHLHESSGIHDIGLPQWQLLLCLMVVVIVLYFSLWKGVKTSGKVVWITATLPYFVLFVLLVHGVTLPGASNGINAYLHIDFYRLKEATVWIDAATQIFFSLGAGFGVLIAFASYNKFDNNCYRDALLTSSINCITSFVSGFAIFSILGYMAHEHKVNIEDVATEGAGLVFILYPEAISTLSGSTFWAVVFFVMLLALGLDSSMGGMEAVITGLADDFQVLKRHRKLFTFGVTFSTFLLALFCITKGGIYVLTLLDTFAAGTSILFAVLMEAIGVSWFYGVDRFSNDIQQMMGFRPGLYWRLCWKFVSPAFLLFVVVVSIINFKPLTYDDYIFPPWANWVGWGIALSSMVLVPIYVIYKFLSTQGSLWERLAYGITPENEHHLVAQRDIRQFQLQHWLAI

Ratio Ki (Homo sapiens [1])	Ki [2] [µM]	Ki [3] [µM]	Ki [4] [µM]	Ratio Ki (Homo sapiens [5])	Structure (SMILES)
> 1700	> 100	> 1000	0.06	> 17000	Cc1cccc(OC(=O)C2=C(c3ccc(Cl)c(Cl)c3)CCC2)c1
11	130	> 1000	12	> 83	O=C(OC1CCCCC1)C1=C(c2ccc(Cl)c(Cl)c2)CCC1
110	8	> 500	0.07	> 7100	O=C(NCCF)C1=C(c2ccc(Cl)c(Cl)c2)CCC1
11	9.2	> 500	0.83	> 600	CONC(=O)C1=C(c2ccc(Cl)c(Cl)c2)CCC1
2.2	210	300	94	3.2	CCN(CC)C(=O)C1=C(c2ccc(Cl)c(Cl)c2)CCC1
50	170	> 1000	3.4	–	O=C(OCC(F)(F)F)C1=C(c2ccc(Cl)c(Cl)c2)CCC1
27	300	> 500	11	> 45	O=C(C1=C(c2ccc(Cl)c(Cl)c2)CCC1)N1CCOCC1
150	33	> 500	0.22	> 2300	Cc1ccccc1OC(=O)C1=C(c2ccc(Cl)c(Cl)c2)CCC1
30	9	50	0.3	170	O=C(OCCO)C1=C(c2ccc(Cl)c(Cl)c2)CCC1
130	18	110	0.14	790	O=C(NCc1cccs1)C1=C(c2ccc(Cl)c(Cl)c2)CCC1
7	410	520	58	9	O=C(C1=C(c2ccc(Cl)c(Cl)c2)CCC1)N1CCCC1
400	12	24	0.03	800	O=C(NCc1ccco1)C1=C(c2ccc(Cl)c(Cl)c2)CCC1
5.6	50	> 1000	9	> 110	O=C(NC1CCC1)C1=C(c2ccc(Cl)c(Cl)c2)CCC1

Structure (SMILES)	Ratio Ki (Homo sapiens [1])	Ki [2] [µM]	Ki [3] [µM]	Ki [4] [µM]	Ratio Ki (Homo sapiens [5])
O=C(OCc1cccs1)C1=C(c2ccc(Cl)c(Cl)c2)CCC1	110	42	910	0.4	2300
O=C(OCc1ccco1)C1=C(c2ccc(Cl)c(Cl)c2)CCC1	41	61	24	1.5	16
O=C(OCCF)C1=C(c2ccc(Cl)c(Cl)c2)CCC1	12	5.8	390	0.5	780
O=C(Oc1ccccc1)C1=C(c2ccc(Cl)c(Cl)c2)CCC1	500	85	> 500	0.17	> 2900
CON(C)C(=O)C1=C(c2ccc(Cl)c(Cl)c2)CCC1	39	250	540	6.4	84
CC(C)OC(=O)C1=C(c2ccc(Cl)c(Cl)c2)CCC1	10	26	500	2.6	190
COC(=O)C1=C(c2ccc(Cl)c(Cl)c2)CCC1	6	–	–	–	410
